Reference: patent US10668047B2, “Aziridine containing DNA alkylating agents” (priority 2015, dated 2020)
Where two headings read alike, the source gives them in different places.

Test system: H460 non-cell lung cancer human tumor cell line
Test: In vitro human tumor cell line cytotoxicity (proliferation) assay, AlamarBlue
Assay type: cell-based
Settings: Homo sapiens
Protocol: IC50 values are reported in micromolar and result from exposure of compound at various concentrations for 2 hrs followed by a wash step and addition of fresh media followed by growth and cell viability staining and comparison to a media only treated control.
Specifically, exponentially growing cells are seeded at a density of 4×10^3 cells per well in a 96 well plate and incubated at 37° C. in 5% CO2, 95% air and 100% relative humidity for 24 hours prior to addition of test compounds. Compounds are solubilized in 100% DMSO at 200 times the desired final test concentration. At the time of drug addition, compounds are further diluted to 4 times the desired final concentration with complete medium. Aliquots of 50 μl of compound at specified concentrations are added to microtiter wells already containing 150 μl of medium, resulting in the final drug concentration reported. After drug addition, the plates are incubated for an additional 2 hours at 37° C., 5% CO2, 95% air, and 100% relative humidity, then the drug is washed off and fresh medium is added and the plates are incubated for addition 70 hrs at 37° C., 5% CO2, 95% air and 100% relative humidity. At the end of this incubation, the viable cells are quantified using the AlamarBlue assay. The drug concentration resulting in growth inhibition of 50% (IC50) is calculated using Prism software (Irvine, Calif.), and the results are listed in the table.

[1] = NCI-H460, H460 cells, under air, 2 hrs exposure, wash, then 70 hrs growth, read-out: IC50 (air)
[2] = NCI-H460, H460 cells, under nitrogen, 2 hrs exposure, wash, then 70 hrs growth, read-out: IC50 (N2)
[3] = NCI-H460, read-out: IC50 (N2), H460 cells, under nitrogen, 2 hrs exposure, wash, then 70 hrs growth
[4] = NCI-H460, read-out: IC50 (air), H460 cells, under air, 2 hrs exposure, wash, then 70 hrs growth

Row | SMILES | IC50 [1] | IC50 [2] | IC50 [3] | IC50 [4]
1 | CC(OP(=O)(N1CC1)N1CC1)c1cc(-n2cncn2)c([N+](=O)[O-])cc1F (centres unmarked) [compound 2733] | 2.8 µM | 0.03 µM |  | 
2 | CC(OP(=O)(N1CC1)N1CC1)c1ccc([N+](=O)[O-])c(-n2ccc3ccccc32)c1 (centres unmarked) [compound 2734] | 2.5 µM | 1.6 µM |  | 
3 | CCCCCCCCN(C)c1cc(C(C)OP(=O)(N2CC2)N2CC2)ccc1[N+](=O)[O-] (centres unmarked) [compound 2735] | 3.1 µM | 2 µM |  | 
4 | CC(OP(=O)(N1CC1)N1CC1)c1ccc([N+](=O)[O-])c(N(C)CCN(C)C)c1 (centres unmarked) [compound 2736] | 150 µM | 2.8 µM |  | 
5 | CC(OP(=O)(N1CC1)N1CC1)c1ccc([N+](=O)[O-])c(-n2cnc3ccccc32)c1 (centres unmarked) [compound 2737] | 21 µM | 0.2 µM |  | 
6 | Cc1nccn1-c1cc(C(C)OP(=O)(N2CC2)N2CC2)ccc1[N+](=O)[O-] (centres unmarked) [compound 2738] | 20 µM | 0.2 µM |  | 
7 | CC(OP(=O)(N1CC1)N1CC1)c1ccc([N+](=O)[O-])c(N2CCCC[C@H]2C)c1 (some centres unmarked) [compound 2740] | 24 µM | 1.4 µM |  | 
8 | CC(OP(=O)(N1CC1)N1CC1)c1cc(-n2cnc([N+](=O)[O-])c2)c([N+](=O)[O-])cc1F (centres unmarked) [compound 2742] |  |  | 0.1 µM | 3 µM
9 | CC(OP(=O)(N1CC1)N1CC1)c1cc(-n2cncc2[N+](=O)[O-])c([N+](=O)[O-])cc1F (centres unmarked) [compound 2743] |  |  | 0.2 µM | 3.7 µM
10 | CC(OP(=O)(N1CC1)N1CC1)c1cc(-n2cnc3ccccc32)c([N+](=O)[O-])cc1F (centres unmarked) [compound 2744] | 2.7 µM | 0.05 µM |  | 
11 | CC(OP(=O)(N1CC1)N1CC1)c1cc(N(C)CCN(C)C)c([N+](=O)[O-])cc1F (centres unmarked) [compound 2745] | 58 µM | 0.3 µM |  | 
12 | CC(OP(=O)(N1CC1)N1CC1)c1ccc([N+](=O)[O-])c(-n2cnc(CO)c2)c1 (centres unmarked) [compound 2746] | 220 µM | 2.6 µM |  | 
13 | Cc1cn(-c2cc(C(C)OP(=O)(N3CC3)N3CC3)ccc2[N+](=O)[O-])cn1 (centres unmarked) [compound 2747] | 39 µM | 0.3 µM |  | 
14 | CC(OP(=O)(N1CC1)N1CC1)c1ccc([N+](=O)[O-])c(-n2cccn2)c1 (centres unmarked) [compound 2748] | 38 µM | 0.3 µM |  | 
15 | CC(OP(=O)(N1CC1)N1CC1)c1ccc([N+](=O)[O-])c(-n2cnc(-c3ccccc3)c2)c1 (centres unmarked) [compound 2749] | 3 µM | 0.1 µM |  | 
16 | CC(OP(=O)(N1CC1)N1CC1)c1ccc([N+](=O)[O-])c(N2CCC(c3ccccc3)CC2)c1 (centres unmarked) [compound 2750] | 23 µM | 2.4 µM |  | 
17 | CC(OP(=O)(N1CC1)N1CC1)c1ccc([N+](=O)[O-])c(N2CCN(C(C)C)CC2)c1 (centres unmarked) [compound 2751] | 36 µM | 1.7 µM |  | 
18 | CC(OP(=O)(N1CC1)N1CC1)c1ccc([N+](=O)[O-])c(N2CCC(O)CC2)c1 (centres unmarked) [compound 2752] | 270 µM | 5.7 µM |  | 
19 | COCCN(CCOC)c1cc(C(C)OP(=O)(N2CC2)N2CC2)ccc1[N+](=O)[O-] (centres unmarked) [compound 2753] | 19 µM | 3.2 µM |  | 
20 | Cc1nccn1-c1cc(C(C)OP(=O)(N2CC2)N2CC2)c(F)cc1[N+](=O)[O-] (centres unmarked) [compound 2755] | 4.4 µM | 0.03 µM |  | 
21 | CC(OP(=O)(N1CC1)N1CC1)c1ccc([N+](=O)[O-])c(N2CCN(Cc3cnc([N+](=O)[O-])n3C)CC2)c1 (centres unmarked) [compound 2756] |  |  | 2.8 µM | 45 µM
22 | CC(OP(=O)(N1CC1)N1CC1)c1ccc([N+](=O)[O-])c(N(C)CCN2CCOCC2)c1 (centres unmarked) [compound 2757] |  |  | 3.8 µM | 380 µM
23 | CC(OP(=O)(N1CC1)N1CC1)c1ccc([N+](=O)[O-])c(-n2cnc(C(C)(C)C)c2)c1 (centres unmarked) [compound 2759] | 100 µM | 0.4 µM |  | 
24 | CC(OP(=O)(N1CC1)N1CC1)c1cc(-n2cnc(CO)c2)c([N+](=O)[O-])cc1F (centres unmarked) [compound 2760] | 53 µM | 2.4 µM |  | 
25 | CC(OP(=O)(N1CC1)N1CC1)c1ccc([N+](=O)[O-])c(-n2ccc3ncccc32)c1 (centres unmarked) [compound 2763] | 5 µM | 0.1 µM |  | 
